Data: US8546389B2 (priority 2010, dated 2013)
Where two headings read alike, the source gives them in different places.

How the values were obtained:
[1] = tested on: genotype 1b (Con 1) subgenomic replicon cell line; experiment: HCV replicon assay, genotype 1b (Renilla luciferase); type: cell-based, HCV genotype 1b (Con 1); conditions: Hepatitis C virus, genotype 1b replicon
Procedure, shortened: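 Subgenomic replicon cells expressing Renilla luciferase (1b Con1; 1a and 2a lines by the same method) seeded at 7000 cells/well (5000 for 2a) without G418, exposed to 3-fold compound dilutions for 72 h at 37 °C. Luciferase activity measured; EC50 by non-linear regression.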

[2] = tested on: subgenomic genotype 2a replicon cell line; experiment: HCV replicon assay, genotype 2a; type: cell-based, HCV genotype 2a; conditions: Hepatitis C virus
Experimental: (§1) A genotype 1b (Con 1) subgenomic replicon cell line based on Blight et al., Science 2000 290: 1972-1974, modified to express a Renilla luciferase reporter gene was used to assess antiviral activity of test compounds. Cell cultures were maintained in a sub-confluent state in DMEM with glutamine, 10% heat-inactivated foetal bovine serum (FBS) and G418 (Geneticin®).
(§2) For assay, cells were seeded at a density of 7000 cells/well into 96 well tissue culture trays in culture media lacking G418. Compounds were tested in a three fold dilution series, for example starting from 50 uM. After 72 hours incubation at 37° C. and 5% CO2, Renilla luciferase activity was quantified via the Promega Renilla Luciferase or Renilla-Glo™ Luciferase Assay Systems (Promega corporation. The same method was employed for replicon assays using subgenomic genotype 1a and 2a replicon cell lines with a seeding cell density of 5000 cells/well for the 2a cell lines.
(§3) The compound concentration that reduced luciferase activity by 50% (EC50) was calculated using non-linear regression.

1b (BK) NS5bΔ21 = 1b (BK) NS5bΔ21 (Hepatitis C virus genotype 1b (isolate BK) (HCV), UniProt P26663); experiment: HCV polymerase inhibition assay, genotype 1b; type: biochemical, HCV genotype 1b (BK)
1b (BK) NS5bΔ21, sequence (P26663 2420-2989): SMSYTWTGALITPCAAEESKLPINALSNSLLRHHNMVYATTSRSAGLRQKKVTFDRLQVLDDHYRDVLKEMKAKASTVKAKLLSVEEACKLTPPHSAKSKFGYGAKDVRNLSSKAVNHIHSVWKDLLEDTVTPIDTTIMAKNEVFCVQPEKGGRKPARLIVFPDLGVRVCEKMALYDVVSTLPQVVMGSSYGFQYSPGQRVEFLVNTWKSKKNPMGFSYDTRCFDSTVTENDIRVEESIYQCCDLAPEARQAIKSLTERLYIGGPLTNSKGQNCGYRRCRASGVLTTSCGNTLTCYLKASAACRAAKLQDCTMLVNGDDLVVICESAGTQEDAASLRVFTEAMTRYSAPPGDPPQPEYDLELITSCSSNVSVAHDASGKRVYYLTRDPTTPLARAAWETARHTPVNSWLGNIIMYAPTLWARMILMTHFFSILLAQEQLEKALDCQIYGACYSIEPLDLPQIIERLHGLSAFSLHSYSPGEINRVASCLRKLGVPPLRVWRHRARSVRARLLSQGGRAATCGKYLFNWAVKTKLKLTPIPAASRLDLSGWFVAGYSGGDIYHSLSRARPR
Procedure, shortened: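 Both genotype 1b and 3a enzymes assayed identically: ^33P-GTP incorporation on poly(rC) template, GTP at Km, 50 nM NS5bΔ21, pH 7.5 Tris with 5 mM MgCl2 and MnCl2, 1 h reaction ended by cold EDTA. Filter-bound label counted; IC50 fitted by non-linear regression across three-fold dilution series.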

[3] = tested on: subgenomic genotype 1a replicon cell line; experiment: HCV replicon assay, genotype 1a; type: cell-based, HCV genotype 1a; conditions: Hepatitis C virus
Experimental: as §1, §2, §3

[4] = target: genotype 3a (VRL-69) NS5bΔ21 polymerase (Hepatitis C virus genotype 3a, UniProt Q81258); experiment: HCV polymerase inhibition assay, genotype 3a; type: biochemical, HCV genotype 3a (VRL-69)
genotype 3a (VRL-69) NS5bΔ21 polymerase, sequence (Q81258 whole entry, looked up, stated change not applied): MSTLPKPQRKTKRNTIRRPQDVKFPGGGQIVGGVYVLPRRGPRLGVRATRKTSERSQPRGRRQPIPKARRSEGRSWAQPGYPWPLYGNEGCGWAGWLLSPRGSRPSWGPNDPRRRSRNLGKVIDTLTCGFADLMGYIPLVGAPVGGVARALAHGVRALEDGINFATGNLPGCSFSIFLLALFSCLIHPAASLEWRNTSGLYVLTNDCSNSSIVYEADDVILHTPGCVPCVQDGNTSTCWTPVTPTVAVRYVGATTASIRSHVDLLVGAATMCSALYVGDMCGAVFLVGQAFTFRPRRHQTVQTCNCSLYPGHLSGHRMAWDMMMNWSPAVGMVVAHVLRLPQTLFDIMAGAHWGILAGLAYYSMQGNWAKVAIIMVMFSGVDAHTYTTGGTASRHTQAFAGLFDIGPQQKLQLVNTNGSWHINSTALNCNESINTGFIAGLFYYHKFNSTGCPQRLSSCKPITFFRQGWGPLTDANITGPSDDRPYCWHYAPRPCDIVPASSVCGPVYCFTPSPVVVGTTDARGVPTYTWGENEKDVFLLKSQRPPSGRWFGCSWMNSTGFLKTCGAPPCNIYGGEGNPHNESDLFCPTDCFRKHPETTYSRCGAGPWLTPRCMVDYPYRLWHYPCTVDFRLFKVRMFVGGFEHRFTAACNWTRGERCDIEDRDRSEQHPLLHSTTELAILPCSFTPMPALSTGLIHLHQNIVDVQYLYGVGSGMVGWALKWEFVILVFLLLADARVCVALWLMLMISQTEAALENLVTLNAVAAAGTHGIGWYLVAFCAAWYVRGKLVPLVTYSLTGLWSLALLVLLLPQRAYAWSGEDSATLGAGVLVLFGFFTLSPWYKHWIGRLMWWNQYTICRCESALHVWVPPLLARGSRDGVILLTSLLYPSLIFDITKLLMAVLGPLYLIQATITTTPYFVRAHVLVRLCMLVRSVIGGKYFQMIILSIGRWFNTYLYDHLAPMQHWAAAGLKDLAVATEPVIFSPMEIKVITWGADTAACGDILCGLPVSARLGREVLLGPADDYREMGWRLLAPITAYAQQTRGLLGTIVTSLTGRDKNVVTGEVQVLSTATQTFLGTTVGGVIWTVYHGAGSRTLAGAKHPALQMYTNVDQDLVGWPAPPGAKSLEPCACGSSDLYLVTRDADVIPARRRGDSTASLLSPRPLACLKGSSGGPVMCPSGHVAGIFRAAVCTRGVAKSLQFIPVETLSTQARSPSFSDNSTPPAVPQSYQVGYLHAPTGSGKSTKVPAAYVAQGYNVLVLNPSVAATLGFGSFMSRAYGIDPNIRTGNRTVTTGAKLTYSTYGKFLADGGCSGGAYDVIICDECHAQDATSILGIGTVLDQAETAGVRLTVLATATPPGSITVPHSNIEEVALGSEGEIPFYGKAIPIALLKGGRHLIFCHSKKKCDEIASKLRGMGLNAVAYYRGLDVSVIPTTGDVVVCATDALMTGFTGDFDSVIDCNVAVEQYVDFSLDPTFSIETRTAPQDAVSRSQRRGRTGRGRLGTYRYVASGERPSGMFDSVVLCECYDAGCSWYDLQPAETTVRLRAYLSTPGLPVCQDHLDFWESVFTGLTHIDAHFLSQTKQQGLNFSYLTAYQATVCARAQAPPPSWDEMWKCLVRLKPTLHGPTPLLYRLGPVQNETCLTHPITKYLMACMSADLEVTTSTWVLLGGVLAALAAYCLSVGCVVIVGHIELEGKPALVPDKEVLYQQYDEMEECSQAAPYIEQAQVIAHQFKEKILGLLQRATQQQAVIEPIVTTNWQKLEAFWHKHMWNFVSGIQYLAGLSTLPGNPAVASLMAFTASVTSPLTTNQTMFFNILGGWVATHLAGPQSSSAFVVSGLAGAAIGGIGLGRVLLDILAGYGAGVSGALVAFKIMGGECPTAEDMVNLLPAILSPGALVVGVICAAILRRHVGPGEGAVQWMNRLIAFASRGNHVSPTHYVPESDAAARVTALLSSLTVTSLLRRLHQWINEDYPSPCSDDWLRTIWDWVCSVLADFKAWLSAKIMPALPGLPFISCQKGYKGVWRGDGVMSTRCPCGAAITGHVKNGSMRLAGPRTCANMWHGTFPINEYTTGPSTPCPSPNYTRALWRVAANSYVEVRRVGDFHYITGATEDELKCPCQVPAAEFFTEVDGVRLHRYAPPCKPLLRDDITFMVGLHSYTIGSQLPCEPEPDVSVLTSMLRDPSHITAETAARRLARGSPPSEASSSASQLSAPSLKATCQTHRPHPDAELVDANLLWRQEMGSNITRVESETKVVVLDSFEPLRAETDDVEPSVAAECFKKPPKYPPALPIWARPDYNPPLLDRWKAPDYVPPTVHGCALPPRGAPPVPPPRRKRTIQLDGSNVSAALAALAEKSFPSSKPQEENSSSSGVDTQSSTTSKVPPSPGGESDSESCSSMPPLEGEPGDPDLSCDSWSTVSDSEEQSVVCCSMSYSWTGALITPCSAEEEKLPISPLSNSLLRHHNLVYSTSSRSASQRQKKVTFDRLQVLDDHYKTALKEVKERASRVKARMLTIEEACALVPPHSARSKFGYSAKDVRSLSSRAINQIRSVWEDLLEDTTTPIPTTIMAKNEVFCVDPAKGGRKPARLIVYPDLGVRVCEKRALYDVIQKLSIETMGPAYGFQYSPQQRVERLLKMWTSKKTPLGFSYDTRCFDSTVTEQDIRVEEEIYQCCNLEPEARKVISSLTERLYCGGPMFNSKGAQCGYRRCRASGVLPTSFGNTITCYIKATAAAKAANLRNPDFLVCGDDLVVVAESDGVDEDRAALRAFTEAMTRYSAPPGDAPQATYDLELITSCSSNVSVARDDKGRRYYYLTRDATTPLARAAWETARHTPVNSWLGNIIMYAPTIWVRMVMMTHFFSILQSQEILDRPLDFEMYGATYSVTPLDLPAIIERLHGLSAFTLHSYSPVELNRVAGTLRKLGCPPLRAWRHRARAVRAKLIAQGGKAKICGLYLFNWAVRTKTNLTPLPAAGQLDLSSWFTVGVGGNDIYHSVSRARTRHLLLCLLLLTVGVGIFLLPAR
Experimental: HCV polymerase reactions were carried out using a modified method of Howe et al., Antimicrobial Agents and Chemotherapy 2004 48(12): 4813-4821. Reactions contained a final concentration of, 0.5% DMSO, 50 nM, 1b (BK) NS5bΔ21, 20 mM Tris-HCl pH 7.5, 5 mM MgCl2, 5 mM MnCl2, 3 mM DTT, 0.05% BSA, 0.2 U/μL RNasin, 10 μg/mL Poly(rC) template, GTP (at Km) and 0.05 μCi/μL ^33P-GTP in a total reaction volume of 50 μL. Compounds were tested in a three fold dilution series, for example starting from 50 μM. Reactions were initiated with the addition of GTP and terminated after 1 hour with 50 μL ice cold 0.2 M EDTA. Terminated reactions were transferred to DEAE 96-well filter plates, unincorporated nucleotides washed from the filters and 50 μL scintillation fluid added prior to reading on a scintillation counter. Similarly, a genotype 3a (VRL-69) NS5bΔ21 polymerase enzyme assay was conducted using essentially the same method.
The compound concentration that reduced ^33P-GTP incorporation by 50% (IC50) was calculated using non-linear regression.

[5] = 72 hours, luciferase, read-out: genotype 1b EC50 (range class)
[6] = 1b (BK) NS5bΔ21, 33P-GTP incorporation, read-out: 1b polymerase IC50 (range class)
[7] = genotype 1b, read-out: 1b NS5b polymerase IC50
[8] = genotype 3a, read-out: 3a NS5b polymerase IC50

| SMILES | EC50 [1, 5] | EC50 ([1]; read-out: Replicon 1b EC50) | EC50 [2] | IC50 (1b (BK) NS5bΔ21; [6]) | IC50 (1b (BK) NS5bΔ21; [7]) | EC50 [3] | IC50 [4, 8] | IC50 [4] |
| --- | --- | --- | --- | --- | --- | --- | --- | --- |
| CNC(=O)c1c2cc(C3CC3)c(N(CCCSC)S(C)(=O)=O)cc2nn1-c1ccc(Br)cc1 [Compound 99, 2-(4-bromophenyl)-5-cyclopropyl-N-methyl-6-[3-methylsulfanylpropyl(methylsulfonyl)amino]-2H-indazole-3-carboxamide] | < 990 nM | 70 nM | 1080 nM | < 990 nM | 90 nM | 430 nM | 20 nM |  |
| CNC(=O)c1c2cc(C3CC3)c(N(CCCN3CCCCC3)S(C)(=O)=O)cc2nn1-c1ccc(Oc2ccc(F)cc2)cc1 [Compound 111] | < 990 nM | 340 nM | 2050 nM | 1000 to 9990 nM | 1170 nM | 2920 nM | 260 nM |  |
| CNC(=O)c1c2cc(C3CC3)c(N(CCN3CCOCC3)S(C)(=O)=O)cc2nn1-c1ccc(Oc2ccc(F)cc2)cc1 [Compound 112] | < 990 nM | 130 nM | 2730 nM | < 990 nM | 410 nM | 1900 nM | 40 nM |  |
| CCN(c1cc2nn(-c3ccc(NCC(C)C)cc3)c(C(=O)NC)c2cc1C1CC1)S(C)(=O)=O [Compound 117] | < 990 nM | 70 nM | 150 nM | < 990 nM | 430 nM | 340 nM | 70 nM |  |
| CNC(=O)c1c2cc(C3CC3)c(N(CCCNC(C)=O)S(C)(=O)=O)cc2nn1-c1ccc(Nc2ccc(F)cc2)cc1 [Compound 119] | < 990 nM | 240 nM | 2700 nM | < 990 nM | 130 nM | 1200 nM | 30 nM |  |
| CNC(=O)c1c2cc(C3CC3)c(N(CCCNC(=O)c3ccoc3)S(C)(=O)=O)cc2nn1-c1ccc(Nc2ccc(F)cc2)cc1 [Compound 120] | < 990 nM | 90 nM | 14400 nM | < 990 nM | 110 nM | 3690 nM |  | 80 nM |
| CCOC(=O)CCN(c1cc2nn(-c3ccc(Br)cc3)c(C(=O)NC)c2cc1C1CC1)S(C)(=O)=O [Compound 131] | < 990 nM | 140 nM | 3790 nM | < 990 nM | 370 nM | 450 nM |  | 470 nM |
| CNC(=O)c1c2cc(C3CC3)c(N(CCCNS(C)(=O)=O)S(C)(=O)=O)cc2nn1-c1ccc(Br)cc1 [Compound 134] | < 990 nM | 110 nM | 5020 nM | < 990 nM | 90 nM | 540 nM | 30 nM |  |
| CCN(c1cc2nn(-c3ccc(Oc4ccc(F)cc4)nc3)c(C(=O)NC)c2cc1C1CC1)S(C)(=O)=O [Compound 136] | < 990 nM | 270 nM | 1800 nM | 1000 to 9990 nM | 1550 nM | 1530 nM | 820 nM |  |
| CNC(=O)c1c2cc(C3CC3)c(N(CCCNC(=O)C(C)C)S(C)(=O)=O)cc2nn1-c1ccc(Br)cc1 [Compound 156] | < 990 nM | 210 nM | 1510 nM | < 990 nM | 250 nM | 210 nM | 70 nM |  |
| CNC(=O)c1c2cc(C3CC3)c(N(CCCNC(=O)c3ccoc3)S(C)(=O)=O)cc2nn1-c1ccc(Br)cc1 [Compound 160] | < 990 nM | 90 nM | 780 nM | < 990 nM | 70 nM | 340 nM | 40 nM |  |
| CCOC(=O)CCC(=O)NCCCN(c1cc2nn(-c3ccc(Br)cc3)c(C(=O)NC)c2cc1C1CC1)S(C)(=O)=O [Compound 164] | < 990 nM | 210 nM | 620 nM | < 990 nM | 520 nM | 10 nM | 40 nM |  |
| CNC(=O)c1c2cc(C3CC3)c(N(CCCNC(=O)c3ccccc3)S(C)(=O)=O)cc2nn1-c1ccc(Br)cc1 [Compound 166] | < 990 nM | 20 nM | 340 nM | < 990 nM | 160 nM | 20 nM | 30 nM |  |
| CCCC(=O)NCCCN(c1cc2nn(-c3ccc(Br)cc3)c(C(=O)NC)c2cc1C1CC1)S(C)(=O)=O [Compound 171] | < 990 nM | 210 nM | 4260 nM | < 990 nM | 310 nM | 280 nM | 40 nM |  |
| CNC(=O)c1c2cc(C3CC3)c(N(CCCNC(=O)C(F)(F)F)S(C)(=O)=O)cc2nn1-c1ccc(Br)cc1 [Compound 172] | < 990 nM | 60 nM | 1830 nM | < 990 nM | 110 nM | 60 nM | 40 nM |  |
| CNC(=O)c1c2cc(C3CC3)c(N(CCCNC(=O)c3ccnc(OC)c3)S(C)(=O)=O)cc2nn1-c1ccc(Br)cc1 [Compound 177] | < 990 nM | 70 nM | 310 nM | < 990 nM | 280 nM | 110 nM | 60 nM |  |
| CNC(=O)c1c2cc(C3CC3)c(N(CCCNC(=O)c3nonc3C)S(C)(=O)=O)cc2nn1-c1ccc(Br)cc1 [Compound 179] | < 990 nM | 70 nM | 520 nM | < 990 nM | 260 nM | 180 nM | 30 nM |  |
| CNC(=O)c1c2cc(C3CC3)c(N(CCCNC(=O)c3cnn(C)c3C)S(C)(=O)=O)cc2nn1-c1ccc(Br)cc1 [Compound 180] | < 990 nM | 140 nM | 1110 nM | < 990 nM | 370 nM | 570 nM | 50 nM |  |
| CNC(=O)c1c2cc(C3CC3)c(N(CCCNC(=O)c3cccc(OC)c3F)S(C)(=O)=O)cc2nn1-c1ccc(Br)cc1 [Compound 189] | < 990 nM | 30 nM | 230 nM | < 990 nM | 130 nM | 80 nM | 50 nM |  |
| CNC(=O)c1c2cc(C3CC3)c(N(CCCNC(=O)c3cccnc3OC)S(C)(=O)=O)cc2nn1-c1ccc(Br)cc1 [Compound 190] | < 990 nM | 70 nM | 430 nM | < 990 nM | 830 nM | 90 nM | 40 nM |  |
| CNC(=O)c1c2cc(C3CC3)c(N(CCCNC(=O)c3cccnc3)S(C)(=O)=O)cc2nn1-c1ccc(Br)cc1 [Compound 191] | < 990 nM | 190 nM | 2590 nM | < 990 nM | 430 nM | 400 nM | 20 nM |  |
| CNC(=O)c1c2cc(C3CC3)c(N(CCCN3CCOCC3)S(C)(=O)=O)cc2nn1-c1ccc(Br)cc1 [Compound 200] | < 990 nM | 170 nM | 1050 nM | < 990 nM | 220 nM | 650 nM | 40 nM |  |
| CNC(=O)c1c2cc(C3CC3)c(N(CCCNC(=O)[C@H]3CCC[C@@H]3C(=O)OC)S(C)(=O)=O)cc2nn1-c1ccc(Br)cc1 [Compound 216] | < 990 nM | 40 nM | 680 nM | < 990 nM | 180 nM | 130 nM | 20 nM |  |
